According to article PMC2763345 (PLoS Pathogens, 2009):
In brackets after ≈: the same amount, converted by molar mass. Read-outs that look alike come from different tables or passages of the source.

Legend:
[1] = tested on: M. tuberculosis H37Rv-GFP; experiment: microbe, parasite or virus in culture; assay type: cell-based, Mycobacterium tuberculosis; details: for MIC: Mycobacterium tuberculosis, H37RV
[2] = tested on: M. tuberculosis H37Rv-GFP in Raw264.7 macrophages; experiment: microbe, parasite or virus in culture; assay type: cell-based, Mycobacterium tuberculosis; details: for MIC: Mycobacterium tuberculosis, H37RV
M. tuberculosis H37Rv [3] = assay type: cell-based
M. tuberculosis H37Ra [4] = assay type: cell-based
BCG Pasteur-Tokyo = assay type: cell-based, M. bovis BCG
M. smegmatis mc2 155 = assay type: cell-based
[5] = tested on: Acinetobacter baumannii, Escherichia coli, Enterobacter cloacae, E. aerogenes, Klebsiella oxytoca, Pseudomonas aeruginosa, Salmonella enteridis, Vibrio mimicus; assay type: cell-based, Gram-negative bacteria
[6] = tested on: Staphylococcus aureus, S. epidermis, S. capitis, S. xylosus, Micrococcus luteus, Listeria innocua, Lactobacillus gallinarum, group G Streptococcus …; assay type: cell-based, Gram-positive bacteria
C. striatum = assay type: cell-based, Corynebacterium striatum
C. jeikeium = assay type: cell-based, Corynebacterium jeikeium
[7] = tested on: Candida albicans, C. glabrata, C. parapsilosis; assay type: cell-based, Fungi
[8] = tested on: M. smegmatis mc2 155 Wild Type; experiment: microbe, parasite or virus in culture; assay type: cell-based
BCG Wild Type = experiment: microbe, parasite or virus in culture; assay type: cell-based, M. bovis BCG
M. tuberculosis H37Ra [9] = assay type: cell-based; remark: listed apart in the source
M. tuberculosis H37Rv [10] = assay type: cell-based; remark: listed apart in the source
in vitro = details: C57BL/6, mouse
[11] = tested on: M. tuberculosis H37Rv-GFP in human primary macrophages; assay type: cell-based, Mycobacterium tuberculosis
[12] = tested on: M. tuberculosis H37Rv-GFP in mouse bone marrow-derived macrophages; assay type: cell-based, Mycobacterium tuberculosis
[13] = read-out: In vitro broth growth MIC (µM)
[14] = read-out: In vitro broth growth MIC (µg/mL)
[15] = 120 h, read-out: Intracellular macrophage growth MIC (µM)
[16] = 120 h, read-out: Intracellular macrophage growth MIC (µg/mL)
[17] = Mycolicibacterium smegmatis, MC2155
[18] = Mycobacterium tuberculosis variant bovis BCG, BCG

| SMILES | MIC [1, 13] [µM] | MIC [1, 14] [µg/mL] | MIC [2, 15] [µM] | MIC [2, 16] [µg/mL] | Intracellular macrophage growth Cell toxicity (Raw264.7 macrophages; mouse) [µM] | MIC ([1]; read-out: MIC Extracellular) [µM] | MIC ([2]; read-out: MIC Intracellular) [µM] | also measured |
| --- | --- | --- | --- | --- | --- | --- | --- | --- |
| NC(=O)c1c(NC(=O)C2CC2)sc2c1CCCC2 [AX20017] |  |  |  |  |  |  |  | In vitro broth growth MIC (µM) [1]: >20 µM; In vitro broth growth MIC (µg/mL) [1]: >5 µg/mL; Intracellular macrophage growth MIC (µM) [2]: >20 µM; Intracellular macrophage growth MIC (µg/mL) [2]: >5 µg/mL; Intracellular macrophage growth Cell toxicity (Raw264.7 macrophages): >20 µM |
| NCC[C@H](O)C(=O)N[C@@H]1C[C@H](N)[C@@H](O[C@H]2O[C@H](CN)[C@@H](O)[C@H](O)[C@H]2O)[C@H](O)[C@H]1O[C@H]1O[C@H](CO)[C@@H](O)[C@H](N)[C@H]1O [Amikacin] | 0.07 | 0.04 | > 150 | > 20 | >150 |  |  |  |
| O=C(NCCOCc1cccc(Cl)c1)c1cc([N+](=O)[O-])cc([N+](=O)[O-])c1 [Compound 1] |  |  |  |  |  | 0.2 | 1 |  |
| Nc1cc(C(=O)NCCOCc2cccc(Cl)c2)cc([N+](=O)[O-])c1 [Compound 2] |  |  |  |  |  | > 20 | > 20 |  |
| O=C(NCCOCc1cccc(Cl)c1)c1cc(NO)cc([N+](=O)[O-])c1 [Compound 3] |  |  |  |  |  | > 20 | > 20 |  |
| O=C(NCCOCc1cccc(Cl)c1)c1cccc([N+](=O)[O-])c1 [Compound 4] |  |  |  |  |  | > 20 | > 20 |  |
| O=C(NCCOCc1ccccc1F)c1cc([N+](=O)[O-])cc([N+](=O)[O-])c1 [Compound 5] |  |  |  |  |  | 0.08 | 0.2 |  |
| O=C(NCCOCc1cccc(C(F)(F)F)c1)c1cc([N+](=O)[O-])cc([N+](=O)[O-])c1 [Compound 6] |  |  |  |  |  | 0.2 | 0.2 |  |
| O=C(NCCOCc1ccccc1)c1cc([N+](=O)[O-])cc([N+](=O)[O-])c1 [Compound 7, N-(2-(benzyloxy)ethyl)-3,5-dinitrobenzamide] |  |  |  |  |  | 0.2 | 0.2 | Range of MICs for multiple strains (M. tuberculosis H37Rv [3]): 0.2 µM; Range of MICs for multiple strains (M. tuberculosis H37Ra [4]): 0.2 µM; Range of MICs for multiple strains (BCG Pasteur-Tokyo): 0.2 to 0.7 µM; Range of MICs for multiple strains (M. smegmatis mc2 155): 0.4 µM; Range of MICs for multiple strains [5]: > 250 µM; Range of MICs for multiple strains [6]: > 250 µM; Range of MICs for multiple strains (C. striatum): 27 µM; Range of MICs for multiple strains (C. jeikeium): 2.7 µM; Range of MICs for multiple strains [7]: > 250 µM; MIC [8, 17]: 0.25 µg/mL (≈ 0.724 µM); MIC (BCG Wild Type; [18]): 0.25 µg/mL (≈ 0.724 µM); effect on the synthesis of the arabinan domains of arabinogalactan (AG) and lipoarabinomannan (LAM) (M. tuberculosis H37Ra [9]): clear-cut effect; effects on the biosynthesis of fatty acids, mycolic acids and/or other lipids (M. tuberculosis H37Ra [9]): no effects; bactericidal effect on M. tuberculosis (M. tuberculosis H37Rv [10]): time-dependent; IC50 (in vitro): 50 µM |
| COc1ccc(OCCNC(=O)c2cc([N+](=O)[O-])cc([N+](=O)[O-])c2)cc1 [Compound 8, N-(2-(4-methoxyphenoxy)ethyl)-3,5-dinitrobenzamide] |  |  |  |  |  | 0.2 | 0.2 | decrease in the number of CFUs [11]: More than a ten-fold decrease; decrease in the number of CFUs [12]: More than a ten-fold decrease; Range of MICs for multiple strains (M. tuberculosis H37Rv [3]): 0.2 µM; Range of MICs for multiple strains (M. tuberculosis H37Ra [4]): 0.2 µM; Range of MICs for multiple strains (BCG Pasteur-Tokyo): 0.2 µM; Range of MICs for multiple strains (M. smegmatis mc2 155): 0.4 µM; Range of MICs for multiple strains [5]: > 250 µM; Range of MICs for multiple strains [6]: > 250 µM; Range of MICs for multiple strains (C. striatum): 27 µM; Range of MICs for multiple strains (C. jeikeium): 2.7 µM; Range of MICs for multiple strains [7]: > 250 µM; MIC [8, 17]: 0.15 µg/mL (≈ 0.415 µM); MIC (BCG Wild Type; [18]): 0.075 µg/mL (≈ 0.208 µM); effect on the synthesis of the arabinan domains of arabinogalactan (AG) and lipoarabinomannan (LAM) (M. tuberculosis H37Ra [9]): clear-cut effect; effects on the biosynthesis of fatty acids, mycolic acids and/or other lipids (M. tuberculosis H37Ra [9]): no effects; bactericidal effect on M. tuberculosis (M. tuberculosis H37Rv [10]): time-dependent; IC50 (in vitro): 50 µM |
| O=C(NCCOc1ccccc1F)c1cc([N+](=O)[O-])cc([N+](=O)[O-])c1 [Compound 9] |  |  |  |  |  | 0.2 | 0.7 |  |
| COc1ccc(O[C@H]2CCN(C(=O)c3cc([N+](=O)[O-])cc([N+](=O)[O-])c3)C2)cc1 [Compound 10-(S)] |  |  |  |  |  | 0.08 | 20 |  |
| COC(=O)c1ccc(O[C@H]2CCN(C(=O)c3cc([N+](=O)[O-])cc([N+](=O)[O-])c3)C2)cc1 [Compound 11-(S)] |  |  |  |  |  | 0.08 | > 20 |  |
| COc1ccc(O[C@H]2CCCN(C(=O)c3cc([N+](=O)[O-])cc([N+](=O)[O-])c3)C2)cc1 [Compound 12-(S)] |  |  |  |  |  | 6 | 20 |  |
| CC[C@@H](CO)NCCN[C@@H](CC)CO [Ethambutol] | 4.9 | 1 | 4.9 | 1 | >20 |  |  | differences in MIC between the two assays (broth and intracellular) [2]: No major differences |
| CCc1cc(C(N)=S)ccn1 [Ethionamide] | 6 | 1 | 6 | 1 | 120 |  |  | differences in MIC between the two assays (broth and intracellular) [2]: No major differences |
| CC(=O)O[C@H]1C[C@@]2(C)[C@@H](C[C@@H](O)[C@H]3[C@@]4(C)CC[C@@H](O)[C@@H](C)[C@@H]4CC[C@@]32C)/C1=C(\CCC=C(C)C)C(=O)O [Fusidic Acid] | 1 | 0.5 | 20 | 10 | >20 |  |  |  |
| NNC(=O)c1ccncc1 [Isoniazid] | 1.2 | 0.16 | 1.2 | 0.16 | >150 |  |  | differences in MIC between the two assays (broth and intracellular) [2]: No major differences |
| C[C@H]1COc2c(N3CCN(C)CC3)c(F)cc3c(=O)c(C(=O)O)cn1c23 [Levofloxacin] | 2.5 | 0.9 | > 20 | > 10 | >20 |  |  |  |
| O=[N+]([O-])c1cn2c(n1)OC[C@@H](OCc1ccc(OC(F)(F)F)cc1)C2 [PA-824] | 0.22 | 0.08 | 0.22 | 0.08 | >20 |  |  | differences in MIC between the two assays (broth and intracellular) [2]: No major differences |
| NC(=O)c1cnccn1 [Pyrazinamide] | > 150 | > 20 | > 150 | > 20 | >150 |  |  |  |
| CO[C@H]1/C=C/O[C@@]2(C)Oc3c(C)c(O)c4c(c3C2=O)C2=NC3(CCN(CC(C)C)CC3)NC2=C(NC(=O)/C(C)=C\C=C\[C@H](C)[C@H](O)[C@@H](C)[C@@H](O)[C@@H](C)[C@H](OC(C)=O)[C@@H]1C)C4=O [Rifabutin] | 0.01 | 0.01 | 0.11 | 0.1 | >20 |  |  |  |
| CO[C@H]1/C=C/O[C@@]2(C)Oc3c(C)c(O)c4c(O)c(c(/C=N/N5CCN(C)CC5)c(O)c4c3C2=O)NC(=O)/C(C)=C\C=C\[C@H](C)[C@H](O)[C@@H](C)[C@@H](O)[C@@H](C)[C@H](OC(C)=O)[C@@H]1C [Rifampin] | 0.01 | 0.01 | 2.9 | 2.4 | 24 |  |  | MIC [8]: 0.31 µg/mL (≈ 0.377 µM); MIC (BCG Wild Type): 0.31 µg/mL (≈ 0.377 µM) |
| [H]/N=C(/N)N[C@H]1[C@H](O)[C@@H](O)[C@H](O[C@@H]2O[C@@H](C)[C@](O)(C=O)[C@H]2O[C@@H]2O[C@@H](CO)[C@H](O)[C@@H](O)[C@@H]2NC)[C@@H](N/C(N)=N\[H])[C@@H]1O [Streptomycin] | 1.5 | 0.9 | > 35 | > 20 | >35 |  |  |  |
